Starred links: 1 amine or outer side, 2 acyl side, 3 side chain; linkers in the order of their positions; H or OH if unused. Positions of bridges follow the written chain, without caps; N, C: chain ends. Non-standard residues stand in square brackets, D forms with d. Residues, ends and D or L forms follow the SMILES beside them. ξ: configuration not given here. *: point of attachment. X45 = CCN(CC)CCC(=O)NC(C)C(N[*:1])C(=O)[*:2]; ξAbu(βξ-NH2) = CC(N[*:3])C(N[*:1])C(=O)[*:2]; Pentadecanoyl = CCCCCCCCCCCCCCC(=O)*; ξAsp(βξ-Me) = CC(C(=O)O)C(N)C(=O)O; Myristoyl = CCCCCCCCCCCCCC(=O)*; ξAbu(3ξ-NH2) = CC(N)C(N)C(=O)O; Pip = O=C(O)[CH]1CCCCN1; ξD = NC(CC(=O)O)C(=O)O; ξPip = O=C(O)C1CCCCN1; ξV = CC(C)C(N)C(=O)O; ξP = O=C(O)C1CCCN1
System: Staphylococcus aureus (MSSA)
Settings: 24 h
Outline: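 Broth microdilution MIC per NCCLS M7-A6 with doubling serial dilutions, in cation-adjusted Mueller-Hinton broth supplemented with 0.625 mM calcium.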

Compound	MIC
CCCCCCCCCCCCCCC(=O)NC(CC(=O)O)C(=O)NC1C(=O)N2CCCCC2C(=O)NC(C(C)C(=O)O)C(=O)NC(CC(=O)O)C(=O)NCC(=O)NC(CC(=O)O)C(=O)NCC(=O)NC(C(C)NC(=O)[C@@H](N)CC2CCCCC2)C(=O)NC(C(C)C)C(=O)N2CCCC2C(=O)NC1C (stereo partly drawn) [Compound 31, C15-Amphomycin-9-(β-Cha)]	16 µg/mL
CCCCCCCCCCCCCCC(=O)NC(CC(=O)O)C(=O)NC1C(=O)N2CCCCC2C(=O)NC(C(C)C(=O)O)C(=O)NC(CC(=O)O)C(=O)NCC(=O)NC(CC(=O)O)C(=O)NCC(=O)NC(C(C)NC(=O)CCCCCCCCC)C(=O)NC(C(C)C)C(=O)N2CCCC2C(=O)NC1C (stereo not shown) [Compound 220, C15-Amphomycin-9-C10]	2 µg/mL
CCCCCCCCCCCCCCC(=O)N[C@@H](CC(=O)OC)C(=O)NC(CC(=O)O)C(=O)NC1C(=O)N2CCCCC2C(=O)NC(C(C)C(=O)O)C(=O)NC(CC(=O)O)C(=O)NCC(=O)NC(CC(=O)O)C(=O)NCC(=O)NC(C(C)N)C(=O)NC(C(C)C)C(=O)N2CCCC2C(=O)NC1C (stereo partly drawn) [Compound 313, C15-(Asp-(OME))-Amphomycin] (Pentadecanoyl-D(OMe)[ξD][ξAbu(βξ-NH2)][ξPip][ξAsp(βξ-Me)][ξD]G[ξD]G[ξAbu(3ξ-NH2)][ξV][ξP]; lactam 3-C)	0.5 to 1 µg/mL
CCCCCCCCCCCCCCC(=O)NC(CC(=O)O)C(=O)NC1C(=O)N2CCCCC2C(=O)NC(C(C)C(=O)O)C(=O)NC(CC(=O)O)C(=O)NCC(=O)NC(CC(=O)O)C(=O)NCC(=O)NC(C(C)NC(=O)CCN(CC)CC)C(=O)NC(C(C)C)C(=O)N2CCCC2C(=O)NC1C (stereo not drawn) [Compound 246, C15-Amphomycin-9-(N,N-Diethyl-β-Ala)] (Pentadecanoyl-D[ξAbu(βξ-NH2)][Pip][ξAsp(βξ-Me)]DGDG[X45]VP; lactam 2-C; configuration not given here)	2 µg/mL
CCCCCCCCCCCCCCC(=O)NC(C)C1NC(=O)CNC(=O)C(CC(=O)O)NC(=O)CNC(=O)C(CC(=O)O)NC(=O)C(C(C)C(=O)O)NC(=O)C2CCCCN2C(=O)C(NC(=O)C(CC(=O)O)NC(=O)CNC(=O)[C@@H](N)CCCCN)C(C)NC(=O)C2CCCN2C(=O)C(C(C)C)NC1=O (stereo partly drawn) [Compound 331, Lys-Gly-Amphomycin-9-C15] (H-KG[ξD][ξAbu(βξ-NH2)][ξPip][ξAsp(βξ-Me)][ξD]G[ξD]G[ξAbu(βξ-NH2)](Pentadecanoyl)[ξV][ξP]; lactam 4-C)	>64 µg/mL
CCCCCCCCCCCCCCC(=O)NC(CC(=O)O)C(=O)NC1C(=O)N2CCCCC2C(=O)NC(C(C)C(=O)O)C(=O)NC(CC(=O)O)C(=O)NCC(=O)NC(CC(=O)O)C(=O)NCC(=O)NC(C(C)NC(=O)CCNC(=O)CCCCCN)C(=O)NC(C(C)C)C(=O)N2CCCC2C(=O)NC1C (stereo not drawn) [Compound 70, C15-Amphomycin-9-(β-Ala)-Ahx]	2 µg/mL
CCCCCCCCCCCCCCC(=O)NC(CC(=O)O)C(=O)NC1C(=O)N2CCCCC2C(=O)NC(C(C)C(=O)O)C(=O)NC(CC(=O)O)C(=O)NCC(=O)NC(CC(=O)O)C(=O)NCC(=O)NC(C(C)NC(=O)CNC(=O)[C@@H](N)CC(C)C)C(=O)NC(C(C)C)C(=O)N2CCCC2C(=O)NC1C (stereo partly shown) [Compound 46, C15-Amphomycin-9-Gly-Leu]	1 µg/mL
CCCCCCCCCCCCCC(=O)NCC(=O)NC(CC(=O)O)C(=O)NC1C(=O)N2CCCCC2C(=O)NC(C(C)C(=O)O)C(=O)NC(CC(=O)O)C(=O)NCC(=O)NC(CC(=O)O)C(=O)NCC(=O)NC(C(C)N)C(=O)NC(C(C)C)C(=O)N2CCCC2C(=O)NC1C (stereo not drawn) [Compound 105, C14-Gly-Amphomycin] (Myristoyl-GD[ξAbu(βξ-NH2)][Pip][ξAsp(βξ-Me)]DGDG[ξAbu(3ξ-NH2)]VP; lactam 3-C; configuration not given here)	0.5 µg/mL
CCCCCCCCCCCCCCC(=O)NC(CC(=O)O)C(=O)NC1C(=O)N2CCCCC2C(=O)NC(C(C)C(=O)O)C(=O)NC(CC(=O)O)C(=O)NCC(=O)NC(CC(=O)O)C(=O)NCC(=O)NC(C(C)NC(=O)[C@@H](N)CCCCN)C(=O)NC(C(C)C)C(=O)N2CCCC2C(=O)NC1C (single isomer, unassigned) [Compound 172, C15-Amphomycin-9-Lys]	16 µg/mL

Same assay, conditions: S. aureus (MSSA), CAMHB supplemented with 0.625 mM calcium, 24 hours at about 37° C.; a range = compound tested multiple times

Compound	MIC
CH3—(CH2)15—NH—C(═O)-(M-Phenylacetyl)-Amphomycin [Compound 302]	4 µg/mL
